Measured values taken from the supplement of paper PMC10307832.

What was measured:
Test in all cases: relative viability (nuclei count vs DMSO), 5 days (fraction); higher = more cells survive
Sulindac + Palbociclib = compound: CC1=C(CC(=O)O)c2cc(F)ccc2/C1=C\c1ccc([S+](C)[O-])cc1 [Sulindac] + CC(=O)c1c(C)c2cnc(Nc3ccc(N4CCNCC4)cn3)nc2n(C2CCCC2)c1=O [Palbociclib] (partner 0.5 µM)
In short: (§1)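 Relative viability is defined as nuclei in treated wells over nuclei in vehicle wells. Duplicate plates were run and medians reported. Lung cancer cell lines in 1536-well plates were dosed by pin tool one day after seeding, with one drug or with a fixed anchor-drug dose plus five library-drug doses (not always all listed) in √10 steps, and nuclei were counted after 5 days.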

Sulindac + Olaparib = compound: CC1=C(CC(=O)O)c2cc(F)ccc2/C1=C\c1ccc([S+](C)[O-])cc1 [Sulindac] + O=C(c1cc(Cc2n[nH]c(=O)c3ccccc23)ccc1F)N1CCN(C(=O)C2CC2)CC1 [Olaparib] (partner 8 µM)
In short: as §1

[1] = compound: O=c1[nH]cc(F)c(=O)[nH]1 [5-Fluorouracil] + CC1(C)CCC(c2ccc(Cl)cc2)=C(CN2CCN(c3ccc(C(=O)NS(=O)(=O)c4ccc(N[C@H](CCN5CCOCC5)CSc5ccccc5)c(S(=O)(=O)C(F)(F)F)c4)cc3)CC2)C1 [Navitoclax] (partner 0.5 µM)
In short: as §1

5-Fluorouracil + AZD7762 = compound: O=c1[nH]cc(F)c(=O)[nH]1 [5-Fluorouracil] + NC(=O)Nc1cc(-c2cccc(F)c2)sc1C(=O)N[C@H]1CCCNC1 [AZD7762] (partner 0.2 µM)
In short: as §1

Cell Line	relative viability (Sulindac + Palbociclib; first compound 0.08 µM)	relative viability (Sulindac + Palbociclib; first compound 0.253 µM)	relative viability (Sulindac + Palbociclib; first compound 0.8 µM)	relative viability (Sulindac + Palbociclib; first compound 2.53 µM)	relative viability (Sulindac + Palbociclib; first compound 8 µM)	relative viability (Sulindac + Olaparib; first compound 0.08 µM)	relative viability (Sulindac + Olaparib; first compound 0.253 µM)	relative viability (Sulindac + Olaparib; first compound 0.8 µM)	relative viability (Sulindac + Olaparib; first compound 2.53 µM)	relative viability (Sulindac + Olaparib; first compound 8 µM)	relative viability ([1]; first compound 0.02 µM)	relative viability ([1]; first compound 0.2 µM)	relative viability ([1]; first compound 0.6325 µM)	relative viability ([1]; first compound 2 µM)	relative viability (5-Fluorouracil + AZD7762; first compound 0.02 µM)	relative viability (5-Fluorouracil + AZD7762; first compound 0.2 µM)	relative viability (5-Fluorouracil + AZD7762; first compound 0.6325 µM)	relative viability (5-Fluorouracil + AZD7762; first compound 2 µM)
LCLC-97TM1	0.201	0.244	0.203	0.212	0.277	0.481	0.531	0.473	0.308	0.606	0.463	0.525	0.222	0.212	0.16	0.276	0.22	0.132
LK-2	0.879	0.624	0.496	0.369	0.88	0.766	0.998	0.514	0.592	0.808	1.06	0.939	0.652	0.603	0.482	0.486	0.153	0.188
LOU-NH91	0.473	0.535	0.536	0.521	0.571	0.955	0.961	0.84	0.893	1.01	0.732	0.637	0.455	0.283	0.754	0.725	0.44	0.313
LU99A	0.439	0.409	0.389	0.376	0.417	0.294	0.231	0.259	0.241	0.311	0.755	0.795	0.686	0.563	0.364	0.458	0.368	0.177
LXF-289	0.685	0.672	0.556	0.659	0.624	1.24	1.18	0.873	1.18	1.19	0.881	0.625	0.387	0.283	1.1	0.495	0.342	0.313
NCI-H23	0.613	0.549	0.495	0.505	0.589	0.32	0.319	0.367	0.258	0.282	0.807	0.845	0.653	0.338	0.142	0.208	0.163	0.172
NCI-H322M	0.436	0.462	0.489	0.474	0.46	0.674	0.772	0.742	0.837	0.87	1.29	1.07	0.853	0.693	0.57	0.627	0.608	0.53
NCI-H441	0.193	0.183	0.188	0.207	0.195	0.514	0.537	0.442	0.476	0.624	1	0.502	0.507	0.409	1.18	0.857	0.402	0.317
NCI-H460	0.199	0.176	0.147	0.239	0.148	0.579	0.417	0.432	0.342	0.635	1.5	0.461	0.165	0.0655	0.678	0.332	0.0757	0.0672
NCI-H647	0.462	0.469	0.339	0.431	0.439	0.689	0.577	0.346	0.398	0.785	1.24	1.06	1.09	0.729	0.448	0.588	0.402	0.333
NCI-H727	0.621	0.643	0.566	0.627	0.667	0.588	0.519	0.648	0.769	0.707	0.369	0.41	0.527	0.315	0.697	0.718	0.527	0.605
NCI-H838	0.262	0.234	0.195	0.226	0.223	0.941	0.798	0.65	0.809	0.914	1.14	1.06	0.572	0.28	0.915	0.684	0.654	0.642
NCI-H1355	0.335	0.43	0.327	0.395	0.379	0.704	0.691	0.679	0.66	0.759	0.699	0.651	0.353	0.241	0.673	0.37	0.231	0.198
NCI-H1395	0.545	0.563	0.708	0.627	0.728	0.43	0.424	0.467	0.45	0.483	0.997	1.21	1.07	1.12	0.395	0.405	0.459	0.385
NCI-H1437	0.358	0.296	0.294	0.314	0.333	0.748	0.679	0.503	0.638	0.665		0.243	0.203	0.139	0.34	0.199	0.17	0.116
NCI-H1651	0.493	0.471	0.483	0.554	0.578	0.17	0.189	0.162	0.177	0.169	1.09	0.9	0.574	0.42	0.458	0.234	0.186	
NCI-H1666	0.632	0.606	0.545	0.727	0.624	0.705	0.741	0.674	0.734	0.774	0.878	0.406	0.327	0.311	0.708	0.389	0.462	0.426
